The values that follow come from patent publication US7601716B2, “Pyridopyrazines and derivatives thereof as ALK and c-Met inhibitors” (Cephalon, Inc., priority 2006, dated 2009).

This assay has as its target baculovirus-expressed ALK (Homo sapiens, UniProt Q9UM73). Nature of the assay: ALK Kinase Assay (ELISA/TRF, PLC-γ substrate). Further: 1 µM ATP (Km level). Type of assay: biochemical. To be noted: read-out: ALK Kinase Inhibition (IC50). Put shortly: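 Read-out: TRF of europium-labeled anti-phosphotyrosine antibody bound to phosphorylated GST–PLC-γ coated at 10 μg/mL. Kinase step used 30 ng/ml ALK, 37° C, 15 minutes. IC50 values fitted by nonlinear sigmoidal dose-response (variable slope).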

baculovirus-expressed ALK, sequence (Q9UM73 19-1620): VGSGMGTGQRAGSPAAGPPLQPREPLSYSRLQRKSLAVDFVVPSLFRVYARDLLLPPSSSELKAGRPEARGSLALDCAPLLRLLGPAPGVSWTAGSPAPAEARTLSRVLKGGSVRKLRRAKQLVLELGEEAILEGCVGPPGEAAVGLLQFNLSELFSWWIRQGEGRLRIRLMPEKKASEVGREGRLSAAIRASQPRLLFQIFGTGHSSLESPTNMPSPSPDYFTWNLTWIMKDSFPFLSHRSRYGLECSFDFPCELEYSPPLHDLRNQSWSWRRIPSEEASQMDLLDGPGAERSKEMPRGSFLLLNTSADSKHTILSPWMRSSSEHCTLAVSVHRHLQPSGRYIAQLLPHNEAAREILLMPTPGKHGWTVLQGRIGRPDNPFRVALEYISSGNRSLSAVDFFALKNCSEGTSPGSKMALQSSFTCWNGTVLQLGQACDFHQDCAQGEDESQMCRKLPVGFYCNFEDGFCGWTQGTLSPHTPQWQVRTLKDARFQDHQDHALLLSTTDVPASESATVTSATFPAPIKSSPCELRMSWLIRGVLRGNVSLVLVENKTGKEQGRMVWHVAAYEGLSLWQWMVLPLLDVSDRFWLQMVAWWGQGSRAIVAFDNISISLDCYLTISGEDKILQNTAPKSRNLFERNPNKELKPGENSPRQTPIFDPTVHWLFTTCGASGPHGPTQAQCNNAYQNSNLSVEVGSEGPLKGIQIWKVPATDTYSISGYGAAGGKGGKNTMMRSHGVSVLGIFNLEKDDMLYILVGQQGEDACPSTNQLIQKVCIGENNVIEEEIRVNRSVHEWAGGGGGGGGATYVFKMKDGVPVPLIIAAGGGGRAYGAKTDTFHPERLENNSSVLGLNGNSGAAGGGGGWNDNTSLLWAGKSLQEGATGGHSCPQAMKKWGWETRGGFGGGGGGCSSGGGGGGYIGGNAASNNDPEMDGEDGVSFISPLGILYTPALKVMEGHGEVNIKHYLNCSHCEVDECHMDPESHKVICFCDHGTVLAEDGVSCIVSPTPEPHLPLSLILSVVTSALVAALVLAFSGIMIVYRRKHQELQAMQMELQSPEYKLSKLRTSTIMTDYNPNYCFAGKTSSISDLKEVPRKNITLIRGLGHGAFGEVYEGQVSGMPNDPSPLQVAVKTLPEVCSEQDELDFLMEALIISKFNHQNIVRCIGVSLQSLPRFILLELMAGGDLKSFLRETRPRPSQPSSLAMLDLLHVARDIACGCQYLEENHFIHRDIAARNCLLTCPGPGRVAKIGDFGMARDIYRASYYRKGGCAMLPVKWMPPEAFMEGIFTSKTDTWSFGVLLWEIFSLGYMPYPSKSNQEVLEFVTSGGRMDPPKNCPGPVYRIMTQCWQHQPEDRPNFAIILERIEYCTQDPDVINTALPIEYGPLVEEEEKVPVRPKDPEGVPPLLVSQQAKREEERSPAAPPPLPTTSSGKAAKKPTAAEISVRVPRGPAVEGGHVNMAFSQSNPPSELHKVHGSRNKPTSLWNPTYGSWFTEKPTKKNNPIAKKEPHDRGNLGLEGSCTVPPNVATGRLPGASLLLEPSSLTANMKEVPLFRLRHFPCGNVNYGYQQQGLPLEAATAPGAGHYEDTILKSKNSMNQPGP

`O=C(c1cccc(-c2cnc3c(c2)N(Cc2cc(Cl)ccc2C(F)(F)F)CCN3)c1)N1CCC(N2CCOCC2)CC1` [Example 364, (3-{1-[5-Chloro-2-(trifluoromethyl)benzyl]-1,2,3,4-tetrahydropyrido[2,3-b]pyrazin-7-yl}phenyl)-(4-morpholin-4-ylpiperidin-1-yl)methanone]: the IC50 was in the range of 100 to 1000 nM.

For the compound `COc1ccc(CNC(=O)c2ccc(-c3cnc4c(c3)N(Cc3cc(Cl)ccc3C(F)(F)F)CCN4)cc2)cc1` [Example 419, 4-{1-[5-Chloro-2-(trifluoromethyl)benzyl]-1,2,3,4-tetrahydropyrido[2,3-b]pyrazin-7-yl}-N-(4-methoxybenzyl)benzamide], the IC50 was in the range of 100 to 1000 nM.

As to `O=C(NCc1ccc(OC(F)(F)F)cc1)c1ccc(-c2cnc3c(c2)N(Cc2cc(Cl)ccc2C(F)(F)F)CCN3)cc1` [Example 395, 4-{1-[5-Chloro-2-(trifluoromethyl)benzyl]-1,2,3,4-tetrahydropyrido[2,3-b]pyrazin-7-yl}-N-[4-(trifluoromethoxy)benzyl]benzamide], the IC50 lay within 100 to 1000 nM.

For the compound `O=C(c1cccc(-c2cnc3c(c2)N(Cc2cc(Cl)ccc2C(F)(F)F)CCN3)c1)N1CCN(C(c2ccccc2)c2ccccc2)CC1` [Example 315, (4-Benzhydrylpiperazin-1-yl)-(3-{1-[5-Chloro-2-(trifluoromethyl)benzyl]-1,2,3,4-tetrahydropyrido[2,3-b]pyrazin-7-yl}phenyl)methanone], the IC50 lay within 1000 to 10000 nM.

As to `O=C(c1ccccc1)N1CCN(C(=O)c2ccc(-c3cnc4c(c3)N(Cc3cc(Cl)ccc3C(F)(F)F)CCN4)cc2)CC1` [Example 385, (4-Benzoylpiperazin-1-yl)-(4-{1-[5-chloro-2-(trifluoromethyl)benzyl]-1,2,3,4-tetrahydropyrido[2,3-b]pyrazin-7-yl}phenyl)methanone], the IC50 is under 100 nM.

As to `COc1ccc(CN2CCN(C(=O)c3ccc(-c4cnc5c(c4)N(Cc4cc(Cl)ccc4C(F)(F)F)CCN5)cc3)CC2)cc1` [Example 384, (4-{1-[5-Chloro-2-(trifluoromethyl)benzyl]-1,2,3,4-tetrahydropyrido[2,3-b]pyrazin-7-yl}phenyl)-[4-(4-methoxybenzyl)piperazin-1-yl]methanone], the IC50 was in the range of 100 to 1000 nM.

Regarding `O=C(NC1Cc2ccccc2C1)c1cccc(-c2cnc3c(c2)N(Cc2cc(Cl)ccc2C(F)(F)F)CCN3)c1` [Example 358, 3-{1-[5-Chloro-2-(trifluoromethyl)benzyl]-1,2,3,4-tetrahydropyrido[2,3-b]pyrazin-7-yl}-N-indan-2-ylbenzamide], the 50% inhibitory concentration (IC50) was 100 to 1000 nM.

For `O=C(c1ccc(-c2cnc3c(c2)N(Cc2cc(Cl)ccc2C(F)(F)F)CCN3)cc1)N1CCN(c2nccc3occc23)CC1` [Example 386, (4-{1-[5-Chloro-2-(trifluoromethyl)benzyl]-1,2,3,4-tetrahydropyrido[2,3-b]pyrazin-7-yl}phenyl)-(4-furo[3,2-c]pyridin-4-ylpiperazin-1-yl)methanone], the half-inhibitory concentration (IC50) fell in the range of 100 to 1000 nM.

With `O=C(c1ccc(-c2cnc3c(c2)N(Cc2cc(Cl)ccc2C(F)(F)F)CCN3)cc1)N1CCN(c2ncnc3ccsc23)CC1` [Example 382, (4-{1-[5-Chloro-2-(trifluoromethyl)benzyl]-1,2,3,4-tetrahydropyrido[2,3-b]pyrazin-7-yl}phenyl)-(4-thieno[3,2-d]pyrimidin-4-yl-piperazin-1-yl)methanone], the IC50 is 100 to 1000 nM.

Turning to `O=C(c1cccc(-c2cnc3c(c2)N(Cc2cc(Cl)ccc2C(F)(F)F)CCN3)c1)N1CCC(c2noc3cc(F)ccc23)CC1` [Example 325, (3-{1-[5-Chloro-2-(trifluoromethyl)benzyl]-1,2,3,4-tetrahydropyrido[2,3-b]pyrazin-7-yl}phenyl)-[4-(6-fluorobenzo[d]isoxazol-3-yl)piperidin-1-yl]methanone], the IC50 was 100 to 1000 nM.

In the case of `O=C(c1ccc(-c2cnc3c(c2)N(Cc2cc(Cl)ccc2C(F)(F)F)CCN3)cc1)N1CCC2(CC1)OCc1ccccc12` [Example 434, {4-[1-(5-Chloro-2-trifluoromethyl-benzyl)-1,2,3,4-tetrahydropyrido[2,3-b]pyrazin-7-yl]-phenyl}-(spiro[isobenzofuran-1(3H), 4′-piperidine]-1-yl)methanone], the IC50 lay within 100 to 1000 nM.

As for `O=C(NC1CCN(Cc2ccccc2)C1)c1cccc(-c2cnc3c(c2)N(Cc2cc(Cl)ccc2C(F)(F)F)CCN3)c1` (centres unmarked) [Example 361, N-(1-Benzylpyrrolidin-3-yl)-3-{1-[5-chloro-2-(trifluoromethyl)benzyl]-1,2,3,4-tetrahydropyrido[2,3-b]pyrazin-7-yl}benzamide], the IC50 is under 100 nM.

Take `O=C(NCc1cccc2ccccc12)c1cccc(-c2cnc3c(c2)N(Cc2cc(Cl)ccc2C(F)(F)F)CCN3)c1` [Example 342, 3-{1-[5-Chloro-2-(trifluoromethyl)benzyl]-1,2,3,4-tetrahydropyrido[2,3-b]pyrazin-7-yl}-N-naphthalen-1-ylmethylbenzamide]: the IC50 lay within 100 to 1000 nM.

On to `O=C(c1cccc(-c2cnc3c(c2)N(Cc2cc(Cl)ccc2C(F)(F)F)CCN3)c1)N1CCN(c2ccccc2C(F)(F)F)CC1` [Example 319, (3-{1-[5-Chloro-2-(trifluoromethyl)benzyl]-1,2,3,4-tetrahydropyrido[2,3-b]pyrazin-7-yl}phenyl)-{4-[2-(trifluoromethyl)phenyl]piperazin-1-yl}methanone], for which the IC50 fell in the range of 100 to 1000 nM.

In the case of `CC(C)NC(=O)CN1CCN(C(=O)c2ccc(-c3cnc4c(c3)N(Cc3cc(Cl)ccc3C(F)(F)F)CCN4)cc2)CC1` [Example 402, 2-[4-(4-{1-[5-Chloro-2-(trifluoromethyl)benzyl]-1,2,3,4-tetrahydropyrido[2,3-b]pyrazin-7-yl}benzoyl)piperazin-1-yl]-N-isopropylacetamide], the IC50 is under 100 nM.

Take `O=C(c1cccc(-c2cnc3c(c2)N(Cc2cc(Cl)ccc2C(F)(F)F)CCN3)c1)N1CCN(CCc2ccccc2)CC1` [Example 359, (3-{1-[5-Chloro-2-(trifluoromethyl)benzyl]-1,2,3,4-tetrahydropyrido[2,3-b]pyrazin-7-yl}phenyl)-(4-phenethylpiperazin-1-yl)methanone]: the IC50 is 100 to 1000 nM.

Turning to `COc1ccc(N2CCN(C(=O)c3cccc(-c4cnc5c(c4)N(Cc4cc(Cl)ccc4C(F)(F)F)CCN5)c3)CC2)cc1` [Example 345, (3-{1-[5-Chloro-2-(trifluoromethyl)benzyl]-1,2,3,4-tetrahydropyrido[2,3-b]pyrazin-7-yl}phenyl)-[4-(4-methoxyphenyl)piperazin-1-yl]methanone], the IC50 is 100 to 1000 nM.

For `COc1ccc(N2CCN(C(=O)c3ccc(-c4cnc5c(c4)N(Cc4cc(Cl)ccc4C(F)(F)F)CCN5)cc3)CC2)cc1` [Example 411, (4-{1-[5-Chloro-2-(trifluoromethyl)benzyl]-1,2,3,4-tetrahydropyrido[2,3-b]pyrazin-7-yl}phenyl)-[4-(4-methoxyphenyl)piperazin-1-yl]methanone], the IC50 was in the range of 100 to 1000 nM.

Regarding `O=C(c1ccc(-c2cnc3c(c2)N(Cc2cc(Cl)ccc2C(F)(F)F)CCN3)cc1)N1CCN(C(c2ccccc2)c2ccccc2)CC1` [Example 377, (4-Benzhydrylpiperazin-1-yl)-(4-{1-[5-chloro-2-(trifluoromethyl)benzyl]-1,2,3,4-tetrahydropyrido[2,3-b]pyrazin-7-yl}phenyl)methanone], the IC50 was in the range of 1000 to 10000 nM.

As to `O=C(c1ccc(-c2cnc3c(c2)N(Cc2cc(Cl)ccc2C(F)(F)F)CCN3)cc1)N1CCC(Cc2ccccc2)CC1` [Example 378, (4-Benzylpiperidin-1-yl)-(4-{1-[5-chloro-2-(trifluoromethyl)benzyl]-1,2,3,4-tetrahydropyrido[2,3-b]pyrazin-7-yl}phenyl)methanone], the IC50 is 1000 to 10000 nM.

On to `Cc1cc(N2CCN(C(=O)c3cccc(-c4cnc5c(c4)N(Cc4cc(Cl)ccc4C(F)(F)F)CCN5)c3)CC2)c2ccccc2n1` [Example 337, (3-{1-[5-Chloro-2-(trifluoromethyl)benzyl]-1,2,3,4-tetrahydropyrido[2,3-b]pyrazin-7-yl}phenyl)-[4-(2-methylquinolin-4-yl)piperazin-1-yl]methanone], for which the IC50 was 100 to 1000 nM.

For the compound `O=C(NC1CCN(Cc2ccccc2)CC1)c1cccc(-c2cnc3c(c2)N(Cc2cc(Cl)ccc2C(F)(F)F)CCN3)c1` [Example 327, N-(1-Benzylpiperidin-4-yl)-3-{1-[5-chloro-2-(trifluoromethyl)benzyl]-1,2,3,4-tetrahydropyrido[2,3-b]pyrazin-7-yl}benzamide], the IC50 is under 100 nM.

Regarding `O=C(c1cccc(-c2cnc3c(c2)N(Cc2cc(Cl)ccc2C(F)(F)F)CCN3)c1)N1CCN(c2ccccc2Cl)CC1` [Example 360, [4-(2-Chlorophenyl)piperazin-1-yl]-(3-{1-[5-chloro-2-(trifluoromethyl)benzyl]-1,2,3,4-tetrahydropyrido[2,3-b]pyrazin-7-yl}phenyl)methanone], the IC50 lay in the range of 100 to 1000 nM.

`O=C(c1cccc(-c2cnc3c(c2)N(Cc2cc(Cl)ccc2C(F)(F)F)CCN3)c1)N1CCN(c2cccc(C(F)(F)F)c2)CC1` [Example 312, (3-{1-[5-Chloro-2-(trifluoromethyl)benzyl]-1,2,3,4-tetrahydropyrido[2,3-b]pyrazin-7-yl}phenyl)-{4-[3-(trifluoromethyl)phenyl]piperazin-1-yl}methanone]: the IC50 lay in the range of 100 to 1000 nM.

Regarding `O=C(c1cccc(-c2cnc3c(c2)N(Cc2cc(Cl)ccc2C(F)(F)F)CCN3)c1)N1CCOCC1` [Example 341, (3-{1-[5-Chloro-2-(trifluoromethyl)benzyl]-1,2,3,4-tetrahydropyrido[2,3-b]pyrazin-7-yl}phenyl)morpholin-4-ylmethanone], the IC50 was in the range of 100 to 1000 nM.

Consider `O=C(c1cccc(-c2cnc3c(c2)N(Cc2cc(Cl)ccc2C(F)(F)F)CCN3)c1)N1CCN(c2ncccn2)CC1` [Example 307, (3-{1-[5-Chloro-2-(trifluoromethyl)benzyl]-1,2,3,4-tetrahydropyrido[2,3-b]pyrazin-7-yl}phenyl)-(4-pyrimidin-2-ylpiperazin-1-yl)methanone], for which the IC50 is 100 to 1000 nM.
